The compounds below were run against T1, Recombinant human cathepsin A (Homo sapiens, UniProt P10619) (assay: Cathepsin A inhibitory activity). Conditions: pharmacological test "Cathepsin A inhibitory activity"; IC50 given as class A/B/C; read-out: Activity (2): Cathepsin A inhibitory activity, IC50 class.
T1 construct: Recombinant human cathepsin A (residues 29-480, with a C-terminal 10-His tag); 10-His (C); purchased R&D Systems 1049-SE
T1 sequence (P10619 29-312 limits assumed): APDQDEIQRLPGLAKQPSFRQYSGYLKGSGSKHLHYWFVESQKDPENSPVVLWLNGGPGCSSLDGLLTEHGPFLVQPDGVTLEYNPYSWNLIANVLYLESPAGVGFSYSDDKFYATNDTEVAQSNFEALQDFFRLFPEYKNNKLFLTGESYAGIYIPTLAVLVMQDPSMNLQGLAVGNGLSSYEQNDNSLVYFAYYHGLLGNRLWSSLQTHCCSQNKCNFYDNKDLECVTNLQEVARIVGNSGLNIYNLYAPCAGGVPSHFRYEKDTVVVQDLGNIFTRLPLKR
T1 sequence (P10619 327-480 limits assumed): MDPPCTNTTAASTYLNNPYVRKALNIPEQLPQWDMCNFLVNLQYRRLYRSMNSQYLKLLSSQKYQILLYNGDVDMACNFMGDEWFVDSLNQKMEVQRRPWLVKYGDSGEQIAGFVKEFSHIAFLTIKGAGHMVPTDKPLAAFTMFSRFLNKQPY
Assay type: biochemical
How it was run: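 Read-out was microfluidic separation of cleaved vs. uncleaved Bodipy FL-bradykinin (2 μM), giving turnover, % inhibition and IC50. Compound and 833 ng/ml enzyme met for 15 min RT in pH 5.5 MES/DTT before substrate (15 min RT). The 29-480 His-tagged human enzyme was first activated by cathepsin L, then E-64 (10 μM).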

Row | IC50 [nM] | SMILES
1 | 100 to 1000 | CCc1ccc(C(CC(=O)O)NC(=O)c2cc(O)n(-c3ccccc3Cl)n2)cc1 (stereo not shown) [Example 224]
2 | < 100 | O=C(O)CC(NC(=O)c1cc(O)n(-c2ccccc2F)n1)c1ccc(-c2ccccc2)cc1 (stereo not shown) [Example 150]
3 | 1000 to 30000 | COc1ccccc1[C@@H](NC(=O)c1cc(O)n(-c2ccccc2F)n1)[C@@H](O)C(=O)O [Example 240]
4 | 1000 to 30000 | O=C(O)CC(NC(=O)c1cc(O)n(-c2cccc(Cl)c2)n1)c1ccc(-c2ccc(F)cc2)cc1 (stereo not shown) [Example 267]

Same assay, conditions: read-out: Activity (2): Cathepsin A inhibitory activity (IC50 class)

Row | IC50 [nM] | SMILES
5 | < 100 | Cc1ccccc1[C@H](CC(=O)O)NC(=O)c1cc(OCCCF)n(-c2ccccc2F)n1 [Example 641]
6 | < 100 | CCOc1cc(C(=O)N[C@@H](CC(=O)O)c2cccc(C)c2)nn1-c1ccccc1Cl [Example 732]
7 | 100 to 1000 | CCOc1cc(C(=O)N[C@@H](CC(=O)O)c2ccc(C#N)cc2)nn1-c1ccccc1Cl [Example 730]
8 | 100 to 1000 | CCOc1cc(C(=O)NC(CC(=O)O)c2ccc(F)cc2)nn1-c1ccccc1Cl (stereo not shown) [Example 739]

Row | SMILES | IC50 [nM]
9 | Cc1ccc([C@H](CC(=O)O)NC(=O)c2cc(OC[C@@](C)(O)C(C)C)n(-c3ccccc3F)n2)c(C)c1 [Example 772, (S)-3-(2,4-Dimethyl-phenyl)-3-{[1-(2-fluoro-phenyl)-5-((S)-2-hydroxy-2,3-dimethyl-butoxy)-1H-pyrazole-3-carbonyl]-amino}-propionic acid] | < 100

Same assay, conditions: read-out: Activity (2): Cathepsin A inhibitory activity, IC50 class

Row | IC50 [nM] | SMILES
10 | 100 to 1000 | O=C(O)C[C@H](NC(=O)c1cc(O)n(-c2ccccc2Cl)n1)c1ccc(Cl)cc1 [Example 109]
11 | 1000 to 30000 | Cc1ccccc1[C@@H](CC(=O)O)NC(=O)c1cc(O)n(-c2ccccc2)n1 [Example 83]
12 | 100 to 1000 | CCc1ccc(C(CC(=O)O)NC(=O)c2cc(O)n(-c3ccc(F)cc3)n2)cc1 (stereo not shown) [Example 363]
13 | 100 to 1000 | O=C(O)C[C@H](NC(=O)c1cc(O)n(-c2ccccc2F)n1)c1cccc(Cl)c1 [Example 401]
14 | 100 to 1000 | COc1ccc(-n2nc(C(=O)N[C@@H](CC(=O)O)c3ccccc3C)cc2O)cc1 [Example 87]
15 | 1000 to 30000 | Cc1ccc(C)c(-n2nc(C(=O)NC(CC(=O)O)c3ccc(C(F)(F)F)cc3)cc2O)c1 (stereo not shown) [Example 57]
16 | 100 to 1000 | O=C(O)CC(NC(=O)c1cc(O)n(-c2ccc(F)cc2)n1)c1cccc(Cl)c1 (stereo not shown) [Example 338]
17 | 1000 to 30000 | O=C(O)CC(NC(=O)c1cc(O)n(-c2ccccc2)n1)c1ccc(-n2ccnc2)cc1 (stereo not shown) [Example 105]
18 | 100 to 1000 | O=C(O)CC(NC(=O)c1cc(O)n(-c2ccc(F)cc2F)n1)c1cccc(Oc2ccc(Cl)cc2)c1 (stereo not shown) [Example 386]
19 | 100 to 1000 | O=C(O)CC(NC(=O)c1cc(O)n(-c2cccc(F)c2)n1)c1cccc(C(F)(F)F)c1 (stereo not shown) [Example 304]
20 | 100 to 1000 | O=C(O)CC(NC(=O)c1cc(O)n(-c2ccccc2)n1)c1ccc(-c2ccccc2)cc1 (stereo not shown) [Example 69]

Row | SMILES | IC50 [nM]
21 | CC(C)(C)[C@H](O)COc1cc(C(=O)N[C@@H](CC(=O)O)c2ccccc2Cl)nn1-c1ccccc1F [Example 797, (S)-3-(2-Chloro-phenyl)-3-{[1-(2-fluoro-phenyl)-5-((S)-2-hydroxy-3,3-dimethyl-butoxy)-1H-pyrazole-3-carbonyl]-amino}-propionic acid] | < 100
22 | COc1ccccc1[C@H](CC(=O)O)NC(=O)c1cc(OC[C@](C)(O)C(C)C)n(-c2ccccc2F)n1 [Example 822, (S)-3-{[1-(2-Fluoro-phenyl)-5-((R)-2-hydroxy-2,3-dimethyl-butoxy)-1H-pyrazole-3-carbonyl]-amino}-3-(2-methoxy-phenyl)-propionic acid] | < 100

Same assay, conditions: recombinant human cathepsin A; read-out: Activity (2): Cathepsin A inhibitory activity, IC50 class

Row | IC50 [nM] | SMILES
23 | 1000 to 30000 | O=C(O)CC(NC(=O)c1cc(O)n(-c2ccccc2)n1)c1ccccc1Oc1ccccc1 (stereo not shown) [Example 442]
24 | 100 to 1000 | COc1ccc([C@H](CC(=O)O)NC(=O)c2cc(O)n(-c3ccc(F)cc3)n2)cn1 [Example 438]
25 | 100 to 1000 | COc1cc(C(=O)N[C@@H](CC(=O)Nc2cc(C)on2)c2ccccc2C)nn1-c1ccccc1F [Example 932, 1-(2-Fluoro-phenyl)-5-methoxy-1H-pyrazole-3-carboxylic acid [(S)-2-(5-methyl-isoxazol-3-ylcarbamoyl)-1-o-tolyl-ethyl]-amide]
